Two molecules from patent US12721835B2, “Anticoccidial composition comprising violacein, and use thereof” (CJ CHEILJEDANG CORPORATION, priority 2020, dated 2026) can be followed below.

The subject of assay [1] is Eimeria tenella. Briefly: Protozoan (sporozoite) direct killing effect. In kind it is cell-based. The settings on record: tested 1 to 500 ppm, vs PBS control. On the procedure: (§1) In the present example, protozoan (sporozoite) direct killing ability evaluation was conducted against 3 representative Eimeria kinds known to be infected in most farms (E. tenella, E. acervulina, E. maxima).
(§2) A certain amount of oocysts of each coccidial protozoan was put in a tube containing glass beads and pulverized, and then to remove the crushed oocyst cell wall and other debris, internal sporocysts were purified using the percoll density gradient, and washed with PBS solution. A reagent comprising sodium taurocholic acid (Sigma aldrich, USA) and trypsin (Gibco, USA), respectively, was treated to sporocysts of Eimeria tenella, Eimeria acervulina and Eimeria maxima for excystation of the internal sporozoites, and they were incubated, and then they were washed with PBS solution once and the protozoa were obtained.
(§3) After reacting the violacein and anticoccidial agents, salinomycin, diclazuril and gallic acid (hereinafter, material) with 3 kinds of Eimeria protozoa at various concentrations of 1 to 500 ppm, respectively, only alive protozoa (sporozoites) were counted through microscopic observation. […]

The test system of a further assay is Eimeria maxima. Nature of the assay: Protozoan (sporozoite) direct killing effect. Format: cell-based. The settings on record: tested 1 to 500 ppm, vs PBS control. On the procedure:
as §1, §2, §3

The test system of the next assay is Eimeria acervulina. Nature of the assay: Protozoan (sporozoite) direct killing effect. Format: cell-based. The settings on record: tested 1 to 500 ppm, vs PBS control. On the procedure: as §1, §2, §3
Assay [2] relates to Eimeria tenella. Nature of the assay: Cell invasion inhibition of protozoa in MDBK cells (ITS-1 PCR). In kind it is cell-based. The settings on record: MDBK cells, 41° C. 24 hours, read-out: Cell invasion inhibitory effect of protozoa (%). On the procedure:
(§4) In the present example, using MDBK cell line which is a representative animal cell known to cause Eimeria infection and propagation, the inhibition ability of intracellular protozoan invasion and intracellular protozoal propagation of the violacein was investigated.
100,000 MDBK cells (purchased from ATCC) were aliquoted in a 24-well plate, and then incubated at a temperature of 37° C. for 12 hours. The protozoan of Eimeria tenella was obtained similar to the method of Example 3 above. 200,000 protozoa per one well were added to wells in which cells were aliquoted, and each material (violacein and anticoccidial agents, salinomycin, diclazuril and gallic acid) was treated to the cells by concentration, and cultured at a temperature of 41° C. for 24 hours. A negative control group is a MDBK cell infected by protozoa of Eimeria tenella, and a positive control group means a group in which salinomycin, diclazuril or gallic acid solution was incubated with the Eimeria tenella protozoan. […] After removing the cells and protozoa inside the cells through pipetting, DNA was extracted from the cells, and PCR was performed using E. tenella ITS-1 (Internal transcribed spacer-1) gene-specific primers. The sequences of the used primers were described in Table 9 below.
Ct values before/after washing for each material were compared and corrected with the ΔCt value of the negative control group to calculate the cell invasion inhibition rate (%) of the protozoa through treatment of each material, and the result was shown in FIG. 3 and Table 10 below.

Assay [3] relates to Eimeria tenella. Nature of the assay: Intracellular protozoan propagation inhibition in MDBK cells (ITS-1 PCR). In kind it is cell-based. The settings on record: MDBK cells, treated after invasion, 24 hours, read-out: Intracellular protozoan propagation inhibitory effect (%). On the procedure:
as §4
100,000 MDBK cells (purchased from ATCC) were aliquoted in a 24-well plate, and then incubated at a temperature of 37° C. for 12 hours. The protozoan of Eimeria tenella was obtained similar to the method of Example 3 above. 200,000 protozoa per one well were added to wells in which cells were aliquoted, and cultured at a temperature of 41° C. for 24 hours, and then the cells were washed using PBS solution twice to remove protozoa which were not attached to the cells. Each material (violacein and anticoccidial agents, salinomycin, diclazuril and gallic acid) was treated to the cells by concentration, and further cultured at a temperature of 41° C. for 24 hours. A negative control group is a MDBK cell infected by protozoa, and a positive control group means a group in which salinomycin and diclazuril solution was incubated with the Eimeria tenella protozoan. After removing the cells and protozoa inside the cells through pipetting, DNA was extracted from the cells, and PCR was performed using E. tenella ITS-1 (Internal transcribed spacer-1) gene-specific primers. The sequences of the used primers were described in Table 9 above.
The intracellular protozoan propagation inhibition rate (%) through treatment of the material was calculated by comparing Ct values in the material treatment groups compared to the negative control group, and the result was shown in FIG. 3 and Table 10.

In assay [4] the test system is Eimeria tenella. Nature of the assay: In vivo anticoccidial activity upon single inoculation (broilers, formulated feed). Details: key to ACI: ACI out of 200 = survival% + RWG% − lesion×10 − oocyst index. The settings on record: Eimeria tenella infection, feed 1 ppm. On the procedure: An in vivo anticoccidial efficacy evaluation test was performed in an animal experiment facility in Gyeongsangnam-do, South Korea. One-day-old female Ross broilers were individually weighed and randomly divided into groups to use in an experiment. Matters and conditions for experimental design were described in Table 2.
A breeding farm was managed according to the Korean poultry breeding management guidelines. Cages and the breeding farm were cleaned and disinfected before starting the test. The temperature of […] and the humidity of 40 to 50% of the breeding farm were maintained, and it was continuously monitored.
For the feed, Korea Feed Al-choi product was used, and each material (diclazuril (Yuhan Corporation YUHAN DICLA product), salinomycin (Cheil Bio Cheilsalino-60 product), violacein (CJ Cheiljedang)) was added to the feed, respectively, at a concentration described in Table 3 below to be self-mixed. Antibiotics and supplements were not used in general feed and mixed feed, and no anticoccidial agent other than each material was added. Broilers were fed ad libitum throughout the experiment period. After putting 15 1-day-age broilers in cages randomly placed for each of the control group or test group and breeding, general feed (Al-choi product) was fed for 7 days, and then the mixed feed prepared above was ingested by dividing by control group or test group. The non-infected negative control group used 1cage, and the infected negative control group and experimental group used 2cage to progress the experiment.
The feed formulation administered to the control group (negative control group or positive control group) and test group and whether coccidiosis was induced by Eimeria tenella were described in Table 3 below.
14-day-old broilers were orally inoculated with 10,000 oocysts (90% sporulated Eimeria tenella oocysts) per individual to induce coccidiosis.
The anticoccidial efficacy by test group designed in Example 1-2 above was shown as an anticoccidial index (ACI), and the anticoccidial index was calculated by Equation 2 below. The ACI score is out of 200 points, and the higher the ACI score, the more excellent the anticoccidial ability, and when it is 120 points or more to less than 140 points, it is determined that it is effective as an anticoccidial material, and when it is 140 points or more to less than 160 points, it is determined that it is excellent as an anticoccidial material, and when it is 160 points or more, it is determined that the anticoccidial effect is very excellent (Luis Miguel De Pablos et al., Anticoccidial activity of maslinic acid against infection with Eimeria tenella in chickens, Parasitol Res, 2010). Anticoccidial index (ACI)=(survival rate after challenge inoculation(%))+(daily weight gain compared to negative control group (RWG,%))−(lesion score×10)−(fecal oocyst excretion amount index) (Equation 2) • 1) Survival rate: the number of dead individuals was recorded daily, and post mortem autopsy was performed to determine a cause of mortality, and the number of individuals who died due to causes other than coccidiosis was excluded. The survival rate (%) up to the 8th day after challenge inoculation was used for anticoccidial index calculation. The measured survival rate was described in Table 4 below. • 2) Daily weight gain: body weight was measured for each cage before challenge inoculation with a protozoan into an individual and at the 7th day after challenge inoculation, and the difference was divided by the number of days to calculate the daily weight gain (ADG, g/d). ‘Daily weight gain compared to the negative control group (RWG, %)’ which was calculated by dividing the daily weight gain (ADG, average daily gain; g/d) of each experimental group by the weight gain (ADG, g/d) of the non-infected negative control group and multiplying by 100 was used for anticoccidial index calculation. […]

Molecules are shown by their SMILES.

Regarding `N#CC(c1ccc(Cl)cc1)c1c(Cl)cc(-n2ncc(=O)[nH]c2=O)cc1Cl` (stereo not shown) [Diclazuril, diclazuril, reference compound], the entries for the “Minimum concentration for killing 50% protozoa (sporozoites) (ppm)” value with Eimeria tenella [1], in the assay with Eimeria maxima and in the assay on Eimeria acervulina were more than 500 ppm, more than 500 ppm and 500 ppm, respectively. Moreover, the inhibition at 0.5 ppm in the assay on Eimeria tenella [2] (0.5 ppm) is 0%; in the assay with Eimeria tenella [3] (0.5 ppm), 45.9%. Further, the inhibition at 1 ppm in the assay on Eimeria tenella [2] (1 ppm) came to 6.3%; in the assay with Eimeria tenella [3] (1 ppm), 52.9%. Also, the “ADG(g/d) after challenge inoculation” value in the assay on Eimeria tenella [4] is 61 g/day. Besides, in the assay on Eimeria tenella [4], the Oocyst index is recorded as 10. In the assay with Eimeria tenella [4] (appendix, scale 0-4, 8th day), the Lesion score was 1.7. The Oocyst excretion amount/g in the assay with Eimeria tenella [4] (feces day 6-8) came to 1.3e+08 g⁻¹. For the same molecule, the Lesion index in the assay on Eimeria tenella [4] (lesion score x 10) is on record as 17. Moreover, the ACI in the assay with Eimeria tenella [4] (out of 200 points) is 169. Moreover, the “Survival rate after challenge inoculation (%)” value in the assay with Eimeria tenella [4] (up to 8th day) worked out at 100%. Also, in the assay on Eimeria tenella [4] (vs non-infected negative control), the “RWG(%)” value is on record as 96%.

Take `O=C(O)c1cc(O)c(O)c(O)c1` [Gallic acid, gallic acid]: the “Minimum concentration for killing 50% protozoa (sporozoites) (ppm)” value in the assay on Eimeria tenella [1], in the assay on Eimeria maxima and with Eimeria acervulina was more than 500 ppm throughout. In addition, the inhibition at 5 ppm was determined as 76% with Eimeria tenella [2] (5 ppm) and 0% in the assay on Eimeria tenella [3] (5 ppm). The inhibition at 10 ppm with Eimeria tenella [2] (10 ppm) is 90.1%; in the assay with Eimeria tenella [3] (10 ppm), 0%.
